Data from article PMC6792352, “Limited Chemical Structural Diversity Found to Modulate Thyroid Hormone Receptor in the Tox21 Chemical Library” (Environmental Health Perspectives, 2019).
Structures can show the parent of a compound that is named as a salt. Where two headings read alike, the source gives them in different places.

How the values were obtained:
in vitro [1] = conditions: rat
[2] = test system: thyroid hormone receptor (endogenous TRα and TRβ); test: GH3-TRE-Ag primary qHTS, luciferase reporter, agonist mode (TOX21_TR_LUC_GH3_Agonist, aeid 803); assay type: cell-based, rat
in vitro [3] = conditions: rat, gh3-tre-luc cells
[4] = Global cytotoxicity: eighteen Tox21 cell viability assays; assay type: cell-based
[5] = test system: Tox21 cell viability assays (different cell types); test: as above; assay type: cell-based
GH3-TRE-Luc cell line [6] = test system: GH3-TRE-Luc cell line
[7] = test system: thyroid hormone receptor (endogenous TRα and TRβ); test: GH3-TRE-Antag primary qHTS, luciferase reporter, antagonist mode with 1 nM T3 (TOX21_TR_LUC_GH3_Antagonist, aeid 804); assay type: cell-based, rat
GH3-TRE-Luc cell line [8] = test: GH3-TRE-Via cell viability, CellTiter-Fluor (TOX21_TR_LUC_GH3_Antagonist_viability, aeid 805)
[9] = test system: thyroid hormone receptor (TR); test: Classification of TR actives across characterization assays (TR-Ag / RXR-Ag; TR model binary); set-up: key to Categorization Code: FP, false positive; conditions: TR agonist characterization
From the text: Active rate comparison between receptors. […]; [Kleinstreuer et al. 2017]). We first removed chemicals classified as pharmaceuticals because these sets of chemicals are biased toward drugs targeting estrogen receptors and androgen receptors. […]. For TR, we cross-referenced these same chemicals for testing against TR and used candidate chemicals in Tables 2 and 3 to define active rates.
Complete results from both GH3-TRE qHTS agonist, antagonist, and viability mode for the 8,305 compounds are provided in Excel Table S2. […]. […]. Together with some potential false negatives, these chemicals, totaling 84 in all, were screened for activity in a series of assays for confirmation in the GH3-TRE-Ag assay; specificity screening in the TRβ-UAS-bla HEK 293T and RXRα-UAS-bla HEK 293T mammalian one-hybrid assays; viability assays for the HEK293T parental cell line; and orthogonal screening in two TR:coactivator recruitment assays, TRa-coa and TRb-coa. […].

[10] = test system: thyroid hormone receptor (endogenous TRα and TRβ); test: GH3-TRE-Ag-Followup confirmation (TOX21_TR_LUC_GH3_Agonist_Followup, aeid 2226); assay type: cell-based, rat
[11] = target: T1, TRα ligand-binding domain (Homo sapiens, UniProt P10827); test: TRa-coa LanthaScreen TR-FRET coactivator (SRC-2 peptide) recruitment, agonist (TOX21_TRA_COA_Agonist_Followup_ratio, aeid 2230); assay type: biochemical
T1 construct: the receptor LBDs expressed as glutathione S-transferase (GST) fusion proteins; purchased

human RXRα = target: T2, human RXRα (Homo sapiens, UniProt P19793); test: RXRa-bla-Ag mammalian one-hybrid beta-lactamase assay (TOX21_TR_RXR_BLA_Agonist_Followup_ratio, aeid 2253); assay type: cell-based
T2 construct: host or cells: GeneBLAzer UAS-bla HEK 293T
T2 sequence (P19793 227-458 limits assumed): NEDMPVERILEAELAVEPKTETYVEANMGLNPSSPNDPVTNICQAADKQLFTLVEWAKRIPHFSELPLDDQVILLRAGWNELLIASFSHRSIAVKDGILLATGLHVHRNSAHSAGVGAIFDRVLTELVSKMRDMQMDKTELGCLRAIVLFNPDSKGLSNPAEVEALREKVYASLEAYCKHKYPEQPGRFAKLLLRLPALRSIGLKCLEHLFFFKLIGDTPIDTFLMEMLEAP

[12] = target: T3, human TRβ ligand-binding domain (Homo sapiens, UniProt P10828); test: TRb-coa LanthaScreen TR-FRET coactivator (SRC-2 peptide) recruitment, agonist (TOX21_TRB_COA_Agonist_Followup_ratio, aeid 2244); assay type: biochemical; set-up: host or cells: GeneBLAzer UAS-bla HEK 293T
T3 sequence (P10828 217-461 limits assumed): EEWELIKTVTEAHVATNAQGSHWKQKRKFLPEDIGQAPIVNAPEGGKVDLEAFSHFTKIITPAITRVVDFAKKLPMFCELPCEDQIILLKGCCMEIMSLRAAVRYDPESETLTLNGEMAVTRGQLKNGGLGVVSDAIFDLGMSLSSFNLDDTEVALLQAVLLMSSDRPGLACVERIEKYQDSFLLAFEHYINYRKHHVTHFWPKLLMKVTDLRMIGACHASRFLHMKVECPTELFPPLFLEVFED

[13] = target: T3, human TRβ ligand-binding domain; test: TRb-bla agonist mammalian one-hybrid beta-lactamase assay (TOX21_TRB_BLA_Agonist_Followup_ratio, aeid 2236); assay type: cell-based; set-up: host or cells: GeneBLAzer UAS-bla HEK 293T
[14] = antagonist candidates, inactive samples arbitrarily set to AC50=1,000 μM, read-out: GH3-TRE-Ag AC50
[15] = antagonist mode, 1 nM T3, read-out: GH3-TRE-Antag AC50

T1 sequence (P10827 163-410 isoform P10827-2 limits assumed, other chains not shown): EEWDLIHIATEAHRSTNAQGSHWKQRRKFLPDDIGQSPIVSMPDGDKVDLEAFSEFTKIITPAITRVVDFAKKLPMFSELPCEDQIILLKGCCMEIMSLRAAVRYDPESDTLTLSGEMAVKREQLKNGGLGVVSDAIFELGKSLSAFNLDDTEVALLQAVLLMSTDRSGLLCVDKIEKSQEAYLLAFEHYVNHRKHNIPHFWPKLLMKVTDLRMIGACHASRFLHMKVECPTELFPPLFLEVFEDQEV

CC[C@H]1OC(=O)C[C@@H](O)[C@H](C)[C@@H](O[C@@H]2O[C@H](C)C[C@H](N(C)C)[C@H]2O)[C@@H](CC=O)C[C@@H](C)C(=O)/C=C/[C@]2(C)O[C@H]2[C@@H]1C [Rosaramicin]
AC50 at 24 h (in vitro [1]): 24.4 µM | AC50 [2, 14]: > 92 µM | CC50 at 24 h (in vitro [3]; AC50 (uM) modified / 1000): 22.9 µM | AC50 [4]: 26.8 µM | Active in global cytotoxicity assays (%) [5]: 46.7%

O=C(CO)[C@@H](O)[C@H](O)[C@@H](O)C(=O)O [Calcium 5-ketogluconate]
AC50 (GH3-TRE-Luc cell line [6]): > 50 µM | hitc (GH3-TRE-Luc cell line [6]): 0 | hitc_modified (GH3-TRE-Luc cell line [6]): 0 | modl_tp (top asymptote for the winning model) ([2]; Table S2, aeid 803): 2.81 percent_activity | resp_max (maximum response value) ([2]; Table S2, aeid 803, per sample): 2.734 percent_activity | hitc ([2]; Table S2, aeid 803, tcpl hit call): 0 | hitc_modified ([2]; Table S2, aeid 803, final hitc after manual review): 0 | AC50 ([2]; Table S2, aeid 803, inactive set to 1000, read-out: AC50 (uM) modified): > 50 µM | CC50 at 24 h (in vitro [3]; AC50 (uM) modified / 1000): > 50 µM | hitc ([7]; Table S2, aeid 804): 0 | hitc_modified ([7]; Table S2, aeid 804): 0 | resp_max (maximum response value) ([7]; Table S2, aeid 804): 6.735 percent_activity | AC50 ([7]; Table S2, aeid 804, inactive set to 1000, read-out: AC50 (uM) modified): > 50 µM | resp_max (maximum response value) (GH3-TRE-Luc cell line [8]; Table S2, aeid 805): 18.832 percent_activity

CCc1cc(OC)c(C[C@@H](C)N)cc1OC [(-)-2,5-Dimethoxy-4-ethylamphetamine hydrochloride]
resp_max GH3-TRE-Antag ([7]; Table S8): 85.7 | resp_max GH3-TRE-Via (GH3-TRE-Luc cell line [8]; Table S8): 62.2

CCC(=C(CC)c1ccc(O)cc1)c1ccc(O)cc1 [(Z,E)-Diethylstilbestrol, reference compound]
AC50 (GH3-TRE-Luc cell line [6]): 12.2 µM | AC50 [2, 14]: > 92 µM | AC50 [7, 15]: 17.1 µM

O=C1NCN(c2ccccc2)C12CCN(CCCOc1ccc(F)cc1)CC2 [AMI-193, reference compound]
AC50 [2, 14]: > 92 µM | AC50 [7, 15]: 15.8 µM | AC50 (GH3-TRE-Luc cell line [8]; read-out: GH3-TRE-Via AC50, inactive samples arbitrarily set to AC50=1,000 μM): 14.1 µM

CCN(CC)C(=O)N[C@@H]1C=C2c3cccc4[nH]cc(c34)C[C@@H]2N(C)C1 [(-)-(5S,8R)-Lisuride]
resp_max GH3-TRE-Antag ([7]; Table S8): 34.7 | resp_max GH3-TRE-Via (GH3-TRE-Luc cell line [8]; Table S8): 42.3

CC[C@H](O)C(C[C@H](C)N(C)C)(c1ccccc1)c1ccccc1 [(-)-alpha-Methadol hydrochloride]
CC50 at 24 h (in vitro [3]; AC50 (uM) modified / 1000, Tox21_110001=Tox21_112827, viability, 1 nM T3 present, 24 h): 43.2 µM | resp_max GH3-TRE-Antag ([7]; Table S8): 76.3 | AC50 ([7]; Table S8, read-out: Average AC50 (uM) GH3-TRE-Antag): 58 µM | resp_max GH3-TRE-Via (GH3-TRE-Luc cell line [8]; Table S8): 67.0 | AC50 (GH3-TRE-Luc cell line [8]; read-out: Average AC50 GH3-TRE-Via, Table S8, inactive set to 1000): 43.2 µM

COc1ccc(OC)c(C(O)C(C)N)c1 (stereo not drawn) [Methoxamine hydrochloride]
TR_LUC_GH3_Antagonist_viability hitc (GH3-TRE-Luc cell line [6]; rat, 24 h): 0 | EMax (% of Control) gh3-tre-agonist [2]: 25.7 % of Control | GH3-TRE-Ag AC50 hitc ([2]; hit call from tcpl): 1 | Categorization Code [9]: FP | CC50 at 24 h (in vitro [3]; AC50 (uM) modified / 1000): > 50 µM | EMax (% of Control) gh3-tre-agonist-followup-1_agonist [10]: 29.2 % of Control | GH3-TRE-Ag-Followup hitc ([10]; hit call from tcpl): 1 | AC50 ([10]; read-out: GH3-TRE-Ag-Followup AC50): 23.4 µM | AC50 ([11]; agonist, read-out: TRa-coa AC50): > 92 µM | TRa-coa hitc ([11]; hit call from tcpl, agonist): 0 | Emax ([11]; read-out: EMax (% of Control) tra-coa-agonist-followup-1): 0.282% | tr-followup-rxr-bla-agonist-1 hitc (human RXRα; hit call from tcpl): 0 | Emax (human RXRα; read-out: EMax (% of Control) tr-followup-rxr-bla-agonist-1): -0.7% | AC50 (human RXRα; read-out: tr-followup-rxr-bla-agonist-1 AC50): > 92 µM | AC50 ([12]; agonist, read-out: TRb-coa AC50): > 92 µM | TRb-coa hitc ([12]; hit call from tcpl, agonist): 0 | Emax ([12]; read-out: EMax (% of Control) trb-coa-agonist-followup-1): 1.5% | AC50 ([13]; agonist, read-out: TRb-bla AC50): > 92 µM | TRb-bla hitc ([13]; hit call from tcpl, agonist): 0 | Emax ([13]; read-out: EMax (% of Control) trb-bla-agonist-followup-1): 7.9% | GLOBAL CYTOTOXICITY cytotox.median [5]: >92 | GLOBAL CYTOTOXICITY cytotox.number_Active [5]: 0 | AC50 (GH3-TRE-Luc cell line [8]; Rattus norvegicus, read-out: TR_LUC_GH3_Antagonist_viability AC50 (uM)): > 92 µM

CCOC(=O)C1=C(COCCN)NC(C)=C(C(=O)OC)C1c1ccccc1Cl (stereo not drawn) [Amlodipine besylate, reference compound]
AC50 at 24 h (in vitro [1]): 2.15 µM | AC50 [2, 14]: > 92 µM | AC50 [7, 15]: 4.56 µM
